We go through nine molecules from EP1028734B1, “USE OF SPECIFIC STEADY-STATE R-TYPE CALCIUM CHANNEL BLOCKERS” (priority 1997, dated 1999).

One data set relates to R-type Ca^2+ channel. Description: block of R-type Ca2+ channel (data not shown). Format: cell-based.
Data set [1] in a line: writhe responses in mice (acetic acid, acetylcholine, kaolin). To be noted: i.p., mice; for ID50 ACETYLCHOLINE: acetylcholine-induced writhes; for ID50 KAOLIN: kaolin-induced writhes. Format: in vivo. The source says: (§1) The antinociceptive actions of compound MV 8612 and MV 8608 were investigated in different models of nociception in mice as reported previously (Vaz et al., 1996, J. Pharmacol. Exp. Ther. 278:304-312).

The next data set in a line: tail-flick in mice. Format: in vivo. To be noted: i.p.
Excerpt: as §1

Data set [2] in a line: anaesthetized guinea pig, blood pressure and bronchoconstriction, PAF challenge. Format: in vivo. The source says: (§2) On the other hand, in vivo administered PAF, induced a marked hypotension in the anaesthetized rat and guinea pig.
Data set [3] in a line: anaesthetized rat, blood pressure, PAF challenge. Format: in vivo. As to conditions: results not shown.
Excerpt: as §2

The test system of data set [4] is human osteoblast cancer lines (MG63 and FAOS-2). In words: spontaneous proliferation of human osteoblast cancer lines. Format: cell-based. As to conditions: Lomir/Dynacirc 10^-8M, nifedipine 10^-6M, non published results.
Data set [5] in a line: organ (allograft) transplant with cyclosporin A treatment, ET-1, blood flow, hypertension. Format: in vivo, rabbit.
A further data set deals with fast Na^+ channel. Description: block of fast Na+ channel (data not shown). To be noted: read-out: ED50, fast Na^+ channel. Format: cell-based.
For data set [6] the following is noted: La Civita et al., 1996; cited from earlier work.
For data set [7] the following is noted: cited from earlier work.
[8] abbreviates: transplant patients, Berg et al., 1991.

Where two headings read alike, the source gives them in different places.

Regarding `COc1ccc([C@@H]2Sc3cc(Cl)ccc3N(CCN(C)C)C(=O)[C@@H]2OC(C)=O)cc1` [Clentiazem], the “block of the R-type Ca^2+ by L-type Ca^2+ channel blockers” value (“block” for short) in the data set on R-type Ca^2+ channel is “none were found to block”.

With `COc1ccc(CCN(C)CCCC(C#N)(c2cc(OC)c(OC)c(OC)c2)C(C)C)cc1OC` (stereo not shown) [D600], the “block” value with R-type Ca^2+ channel was “none were found to block”.

For the molecule `COc1cccc(CCN(C)CCCC(C#N)(c2ccc(OC)c(OC)c2)C(C)C)c1` (stereo not shown) [D888], the “block” value in the data set on R-type Ca^2+ channel is given as “none were found to block”.

With `COc1ccc([C@@H]2Sc3ccccc3N(CCN(C)C)C(=O)[C@@H]2OC(C)=O)cc1` [Diltiazem], the “block” value in the data set with R-type Ca^2+ channel is reported as “none were found to block”.

On to `COc1ccc2c(c1)c(CC(=O)O)c(C)n2C(=O)c1ccc(Cl)cc1` [INDOMETHACIN, indomethacin], for which the “ID50 ACETIC ACID” value in data set [1] (acetic acid-induced writhes) is recorded as 1.2 (0.9-1.4) µmol/kg. Also, in [1], the “ID50 ACETYLCHOLINE” value is 0.8 (0.5-1.0) µmol/kg and the “ID50 KAOLIN” value is 1.6 (1.4-1.8) µmol/kg. The “ID50 TAIL-FLICK” value in the data set “tail-flick in mice” was “no effect”.

As for `CN1CC[C@]23c4c5ccc(O)c4O[C@H]2[C@@H](O)C=C[C@H]3[C@H]1C5` [MORPHINE, morphine], in data set [1], the “ID50 ACETYLCHOLINE” value is 1.4 (1.0-1.8) µmol/kg and the “ID50 KAOLIN” value is given as 1.4 (1.2-1.7) µmol/kg. The “ID50 TAIL-FLICK” value in “tail-flick in mice” is given as 6.0(5.7-6.4) µmol/kg.

Turning to `COc1ccc(CCN(C)CCCC(C#N)(c2ccc(OC)c(OC)c2)C(C)C)cc1OC` (stereo not shown) [Verapamil], in the data set with R-type Ca^2+ channel, the “block” value is “none were found to block”.

`COC(=O)C1=C(C)NC(C)=C(C(=O)OC(C)C)C1c1cccc2nonc12` (stereo not shown) [isradipine]: the “intrinsic (hypotensive) effect” value in data set [2] is “marked intrinsic hypotensive properties”. The intrinsic hypotensive properties result in [3] was “marked intrinsic hypotensive properties”. In data set [4], the spontaneous cell proliferation result is given as “reduced”. For the same molecule, the “elevated circulating endothelin level induced with the Sandimmune drugs” value in data set [5] (data not shown) is on record as “blocks”. In [5] (non published results), the “hypertension and ET-1 plasma elevation associated with cyclosporin A treatment in allograft transplant” value is “blocked”. Also, the “increase of circulating ET-1 and decrease of blood flow in organ transplants” value in [5] (rabbit, cyclosporin-A treated and transplanted animals) is on record as “restored”. For the same molecule, the EC50 with fast Na^+ channel was roughly 10 µM. Also, the “elevated plasma concentration of ET-1 level, frequency, severity of acute attacks of Raynaud's phenomenon” value in data set [6] was “significantly reduced”. Also, the filtration fraction result in data set [7] (3-month study, Grossman et al. 1991) is reported as “remained constant”; in [7] (setting [8]), “reduced”. The renal blood flow entry in data set [7] (setting [8]) was “increased”.

As to `COC(=O)C1=C(C)NC(C)=C(C(=O)OC)C1c1ccccc1[N+](=O)[O-]` [nifedipine], the “intrinsic (hypotensive) effect” value in data set [2] was “marked intrinsic hypotensive properties”. For the same molecule, the intrinsic hypotensive properties entry in data set [3] is reported as “marked intrinsic hypotensive properties”.
